What all share (assay type): physicochemical
The nature of data set [1]: Solubility in the amide-based surfactant DMDA (Met10u).
A short description of data set [2]: Solubility of CBDA in mineral oil. The conditions noted are these: oil or lipid, under certain conditions.
The nature of data set [3]: Solubility in water.
The nature of data set [4]: Thermal stability (decarboxylation) of CBDA. The conditions noted are these: in Met10u solution.

Converted amounts (≈) assume the structure as drawn.

Data on 1 compound can be found in patent publication US12264296B2, “Compositions that contain lipophilic plant material and surfactant, and related methods” (priority 2020, dated 2025).

As a reminder, the solubility is the concentration that dissolves in the medium under given conditions.

As for `C=C(C)[C@@H]1CCC(C)=C[C@H]1c1c(O)cc(CCCCC)c(C(=O)O)c1O` [CBDA, Δ(9)-tetrahydrocannabidiolic acid], the “solubility of CBDA in Met10u” value in data set [1] (at 0 C) was 1%; in data set [1] (at 60 C) it was 100%. Further, in data set [1] (at 70 C), the “solubility in DMDA” value is “over 1000 mg/ml DMDA”. For the same compound, in data set [2], the solubility was roughly 6000 µg/mL (≈ 16.7 mM). In addition, the “solubility of CBDA in water” value in data set [3] (temperature of 4 degrees Celsius or lower, pH 4 or lower) is “below 20 micrograms per milliliter”; in data set [3] (temperature of 70 degrees Celsius or higher, pH of 10 or higher) it was “over 20 milligrams per milliliter”. The “temperature at which CBDA begins to lose its carboxylic moiety (decarboxylation) and become CBD” value in data set [4] is “at least 130 C”.
